# Measured values from US11214803B2, “Modulators of YAP1 expression” (Ionis Pharmaceuticals, Inc., priority 2019, dated 2022).
# Strand notation (5' to 3'): a small letter for the sugar, then the base; units joined by * are phosphorothioate-linked, units joined directly phosphodiester-linked; [ ] holds rarer units or linkages, { } end groups; capitals alone tell only the bases. e = 2'-O-(2-methoxyethyl) (MOE); k = constrained ethyl (cEt); [5mC] = 5-methylcytosine; d = 2'-deoxy (DNA); m = 2'-O-methyl
# Tested on: Yap1 mRNA
# Assay: Antisense inhibition of human Yap1 in SNU-449 cells by modified oligonucleotides, single dose (Example 5, RTS36584)
# Assay type: cell-based
# Method in brief: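 Values are Yap1 mRNA as percent of untreated control cells, measured by quantitative real-time RT-PCR using RTS36584 and normalised to total RNA by RIBOGREEN. Cells were SNU-449, dosed by free uptake at 2,000 nM for approximately 48 hours.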
# [1] = Table 50, Yap1 mRNA remaining as percent of untreated control (UT), SNU-449 cells, single dose
# [2] = Table 39, SNU-449 cells, 10,000 cells per well, free uptake, 2,000 nM oligonucleotide, approx. 48 hours, RTS36584, normalized to RIBOGREEN, Yap1 mRNA relative to untreated control
# [3] = Yap1 mRNA, percent of untreated control, modified oligonucleotides targeting SEQ ID NO: 1 and 2, Table 47
# [4] = Table 51, Yap1 mRNA remaining as percent of untreated control (UT), SNU-449 cells, single dose
# [5] = Table 43 experiment, SNU-449 cells, 10,000 cells per well, free uptake, 2,000 nM, approximately 48 hours, RTS36584, Yap1 mRNA normalized to RIBOGREEN, relative to untreated control cells
# [6] = Table 46, Yap1 mRNA as percent of untreated control, SNU-449 cells, single dose
# [7] = Table 49, Yap1 mRNA level relative to untreated control, modified oligonucleotides targeting SEQ ID NO.: 1 and 2
# [8] = Table 44 experiment, SNU-449 cells, 10,000 cells per well, free uptake, 2,000 nM, approximately 48 hours, RTS36584, Yap1 mRNA normalized to RIBOGREEN, relative to untreated control cells
# [9] = Table 40 (separate experiment), SNU-449 cells, 10,000 cells per well, free uptake, 2,000 nM oligonucleotide, approx. 48 hours, RTS36584, normalized to RIBOGREEN, Yap1 mRNA relative to untreated control
# [10] = Table 52, Yap1 mRNA, modified oligonucleotides targeting SEQ ID NO: 1 and 2
# [11] = Table 45, Yap1 mRNA as percent of untreated control, SNU-449 cells, single dose
# [12] = Table 48, Yap1 mRNA level relative to untreated control, modified oligonucleotides targeting SEQ ID NO.: 1 and 2
# [13] = Table 42 (separate experiment), SNU-449 cells, 10,000 cells per well, free uptake, 2,000 nM modified oligonucleotide, approximately 48 hours, RTS36584, normalized to RIBOGREEN, Yap1 mRNA relative to untreated control cells
substance,measurement,setting,value
1198604 (antisense kT*kA*kA*dT*dA*dT*dT*dG*d[5mC]*dA*dA*dT*k[5mC]*kT*kG*eT) [Compound 1198604],YAP1 (% UT),[1],48 % UT
1198409 (kA*dG*dT*dG*d[5mC]*dT*dT*dT*dG*dG*dA*kA*eG*kA*eT*k[5mC]; antisense) [Compound 1198409],YAP1 (% UTC),[2],19 % UTC
1097238 (antisense kA*kT*kT*dG*d[5mC]*dA*dA*dT*d[5mC]*dT*dG*dT*d[5mC]*kT*kG*kA) [Compound 1097238],YAP1 (% UT),[3],77 % UT
"1197295 (G_{ks}^{m}C_{ks}T_{ks}T_{ds}U_{ys}G_{ds}G_{ds}A_{ds}A_{ds}G_{ds}A_{ds}T_{ds}C_{ds}T_{ks}G_{ks}A_{k}; as printed in the source, key not given here) [Compound 1197295]",YAP1 (% UT),[4],24 % UT
1095575 (antisense kA*k[5mC]*dT*dG*dA*dG*dG*dT*dA*dT*dA*eA*e[5mC]*eT*kG*kG) [Compound 1095575],YAP1 (% UTC),[5],55 % UTC
1198858 (k[5mC]*kT*d[5mC]*dT*dT*dA*dT*dA*dT*dG*dG*kT*eT*kT*eT*kG) [Compound 1198858],YAP1 (% UT),[3],29 % UT
1198836 (kG*kG*dA*dA*dG*dA*dT*d[5mC]*dT*dG*dA*kA*eA*k[5mC]*eT*k[5mC]; antisense) [Compound 1198836],YAP1 (% UT),[6],43 % UT
1198582 (antisense kA*kT*kA*dG*dT*dG*d[5mC]*dT*dT*dT*dG*dG*kA*kA*kG*eA) [Compound 1198582],YAP1 (% UT),[7],63 % UT
1197275 (kA*kA*kG*dT*mA*dA*dG*dG*dT*dT*dT*d[5mC]*d[5mC]*k[5mC]*kA*kG) [Compound 1197275],YAP1 (% UT),[4],30 % UT
1198382 (kT*dT*dA*dG*dA*dG*dT*dA*dT*dG*dT*kG*eG*k[5mC]*eA*kA; antisense) [Compound 1198382],YAP1 (% UTC),[2],19 % UTC
1198501 (kG*kA*dT*dT*dT*dA*dG*dG*dA*dT*dG*e[5mC]*kA*eT*kG*eG; antisense) [Compound 1198501],YAP1 (% UTC),[8],5 % UTC
1198456 (kT*kG*dT*d[5mC]*dT*d[5mC]*dA*dT*dG*d[5mC]*d[5mC]*eT*kT*eA*kT*eA) [Compound 1198456],YAP1 (% UTC),[5],21 % UTC
1198442 (kT*dA*dA*dA*dG*dT*dG*dT*dA*dT*dG*kT*e[5mC]*kA*eG*kA; antisense) [Compound 1198442],YAP1 (% UTC),[9],44 % UTC
1200805 (kG*kA*kG*dG*dT*mA*dT*dA*dA*d[5mC]*dT*dG*dG*kG*k[5mC]*kA; antisense) [Compound 1200805],YAP1 (% UT),[10],50 % UT
1200816 (kG*k[5mC]*kA*d[5mC]*dT*mU*dT*dT*dA*d[5mC]*dA*dT*dT*kA*kG*kG; antisense) [Compound 1200816],YAP1 (% UT),[10],37 % UT
1198560 (antisense kT*kA*kT*dA*dA*d[5mC]*dT*dG*dG*dG*d[5mC]*dA*kA*kA*kT*eT) [Compound 1198560],YAP1 (% UT),[1],53 % UT
1198463 (antisense kA*kT*dG*dG*dA*dA*dA*dT*dT*dG*dT*e[5mC]*kT*e[5mC]*kA*eT) [Compound 1198463],YAP1 (% UTC),[5],59 % UTC
1200841 (kT*k[5mC]*kT*dT*dA*mU*dA*dT*dG*dG*dT*dT*dT*kT*kG*kT; antisense) [Compound 1200841],YAP1 (% UT),[10],76 % UT
1198589 (antisense k[5mC]*kA*kG*dA*dT*dT*dT*dA*dG*dG*dA*dT*kG*k[5mC]*kA*eT) [Compound 1198589],YAP1 (% UT),[1],24 % UT
1198947 (k[5mC]*kA*dA*d[5mC]*dT*d[5mC]*dT*dT*dA*dT*dA*kT*dG*kG*dT*kT; antisense) [Compound 1198947],YAP1 (% UTC),[11],88 % UTC
1198386 (kT*dA*dT*dA*dT*dT*dA*dG*dA*dG*dT*kA*eT*kG*eT*kG; antisense) [Compound 1198386],YAP1 (% UTC),[2],77 % UTC
1197219 (antisense kA*kA*k[5mC]*dT*dT*dT*dA*dA*dA*dG*dT*dG*dT*kA*kT*kG) [Compound 1197219],YAP1 (% UT),[12],71 % UT
1198885 (k[5mC]*kT*dA*dA*dG*dT*dA*dA*dG*dG*dT*kT*eT*k[5mC]*e[5mC]*k[5mC]; antisense) [Compound 1198885],YAP1 (% UT),[6],41 % UT
1198323 (kA*kG*kT*dG*d[5mC]*dT*dT*dT*dG*dG*dA*dA*kG*eA*kT*e[5mC]; antisense) [Compound 1198323],YAP1 (% UT),[12],32 % UT
1198200 (kA*kA*dT*dT*dG*dT*d[5mC]*dT*d[5mC]*dA*dT*eG*e[5mC]*e[5mC]*kT*kT; antisense) [Compound 1198200],YAP1 (% UTC),[13],49 % UTC
1198497 (antisense kA*kG*dG*dA*dT*dG*d[5mC]*dA*dT*dG*dG*eT*kT*eT*kT*eT) [Compound 1198497],YAP1 (% UTC),[8],22 % UTC
1197282 (kA*kA*kA*dT*mU*dG*dT*d[5mC]*dT*d[5mC]*dA*dT*dG*k[5mC]*k[5mC]*kT) [Compound 1197282],YAP1 (% UT),[1],40 % UT
1197210 (antisense kA*kT*kG*dT*dA*dA*dT*dA*dT*dT*dG*d[5mC]*dA*kA*kT*k[5mC]) [Compound 1197210],YAP1 (% UT),[3],105 % UT
1095511 (antisense k[5mC]*kA*d[5mC]*dT*dG*dA*dG*dG*dT*dA*dT*kA*dA*k[5mC]*dT*kG) [Compound 1095511],YAP1 (% UTC),[11],46 % UTC
"1198681 (antisense T_{ks}C_{ks}T_{ds}T_{ds}A_{ds}T_{ds}A_{ds}T_{ds}G_{ds}G_{ds}T_{ds}T_{ds}T_{ks}T_{es}G_{ks}T_{e}; as printed in the source, key not given here) [Compound 1198681]",YAP1 (% UTC),[13],54 % UTC
1198299 (ATATTAGAGTATGTGG; chemistry not fully specified) [Compound 1198299],YAP1 (% UT),[12],27 % UT
1200832 (kA*kT*kT*dT*dA*mG*dG*dA*dT*dG*d[5mC]*dA*dT*kG*kG*kT; antisense) [Compound 1200832],YAP1 (% UT),[10],61 % UT
1198586 (antisense kA*kT*kT*dT*dA*dG*dG*dA*dT*dG*d[5mC]*dA*kT*kG*kG*eT) [Compound 1198586],YAP1 (% UT),[1],96 % UT
1095481 (antisense kT*kG*dA*dG*dG*dT*dA*dT*dA*dA*d[5mC]*dT*kG*eG*kG*e[5mC]) [Compound 1095481],YAP1 (% UTC),[13],21 % UTC
1198370 (kT*dG*dT*d[5mC]*dT*d[5mC]*dA*dT*dG*d[5mC]*d[5mC]*kT*eT*kA*eT*kA; antisense) [Compound 1198370],YAP1 (% UTC),[2],20 % UTC
1198472 (antisense kT*kA*dT*dA*dT*dT*dA*dG*dA*dG*dT*eA*kT*eG*kT*eG) [Compound 1198472],YAP1 (% UTC),[5],60 % UTC
1198909 (kG*kG*dT*dA*dT*dA*dA*d[5mC]*dT*dG*dG*kG*d[5mC]*kA*dA*kA; antisense) [Compound 1198909],YAP1 (% UTC),[11],56 % UTC
"1200802 (TATAACTGGGCAAATT; cEt gapmer, phosphorothioate, 5-methylcytosine, chemistry not fully specified) [Compound 1200802]",YAP1 (% UT),[10],89 % UT
1198809 (antisense kG*kG*dA*dA*dA*dT*dT*dG*dT*d[5mC]*dT*k[5mC]*eA*kT*eG*k[5mC]) [Compound 1198809],YAP1 (% UT),[6],27 % UT
1198746 (kG*e[5mC]*kA*d[5mC]*dT*dT*dT*dT*dA*d[5mC]*dA*dT*eT*eA*kG*kG; antisense) [Compound 1198746],YAP1 (% UTC),[9],7 % UTC
1198374 (kG*dA*dA*dA*dT*dT*dG*dT*d[5mC]*dT*d[5mC]*kA*eT*kG*e[5mC]*k[5mC]; antisense) [Compound 1198374],YAP1 (% UTC),[2],24 % UTC
1009394 (kT*kA*kT*dA*dA*d[5mC]*dT*dG*dG*dG*d[5mC]*dA*dA*kA*kT*kT; antisense) [Compound 1009394],YAP1 (% UT),[3],73 % UT
1198305 (kG*kA*kG*dG*dT*dA*dT*dA*dA*d[5mC]*dT*dG*kG*eG*k[5mC]*eA; antisense) [Compound 1198305],YAP1 (% UT),[7],78 % UT
1198403 (kT*dT*dG*dG*dA*dA*dG*dA*dT*d[5mC]*dT*kG*eA*kA*eA*k[5mC]) [Compound 1198403],YAP1 (% UTC),[2],54 % UTC
1198812 (antisense kA*kT*dA*dT*dG*dG*dA*dA*dA*dT*dT*kG*eT*k[5mC]*eT*k[5mC]) [Compound 1198812],YAP1 (% UT),[6],26 % UT
1197313 (kA*kG*kT*dG*mU*dA*dT*dG*dT*d[5mC]*dA*dG*dA*kA*kG*kA; antisense) [Compound 1197313],YAP1 (% UT),[4],8 % UT
1198751 (kT*eT*kG*dG*dA*dA*dG*dA*dT*d[5mC]*dT*dG*eA*eA*kA*k[5mC]; antisense) [Compound 1198751],YAP1 (% UTC),[9],76 % UTC
1198220 (kA*kA*d[5mC]*dA*d[5mC]*dT*dG*dA*dG*dG*dT*eA*eT*eA*kA*k[5mC]; antisense) [Compound 1198220],YAP1 (% UTC),[5],89 % UTC
